Test system: A549 cells
Test: Homogeneity of irradiation: every well of an A549 plate treated equally with Photofrin®
Assay type: cell-based, human
Settings: Photofrin® at 1.5 μg/mL; wells in the middle of the plate; relative to a second plate of cells without drug; before lengthening the light path from 54 cm to 95.5 cm
From the text: The Xenon arc lamp produces a bright, broad wavelength irradiance beam that when collimated still retains a bright center. This lack of homogeneity in the intensity of the light beam has to be minimized in order to achieve even irradiation over the area of the 96-well plate. For this purpose, two plano-convex lenses are introduced into the light path to approximate a Kohler illumination (FIG. 1). After an initial dosing ranging study of Photofrin® (data not shown), each well of an assay plate containing A549 cells is treated equally with Photofrin® at 1.5 μg/mL to assess homogeneity of the irradiation. For this experiment, the percent viability is calculated relative to a second plate of cells without drug. […] To address the inhomogeneity in irradiance, the distance from the final bandpass filter to the sample is raised approximately 2-fold from 54 cm to 95.5 cm while the first surface of the plano-convex lenses is maintained at 13.6 cm from the 650 nm cut-off filter. By increasing the length of the light path, the center zone of irradiance is broadened to cover the area of the entire plate (FIG. 13). As the light path is lengthened, the overall irradiance is decreased, necessitating the use of a higher Photofrin® concentration.

porfimer sodium [Photofrin®]
viability: 103%

— patent publication US11726079B2, “Lighting systems and methods of using lighting systems for in vitro potency assay for Photofrin” (Concordia Laboratories, Inc., priority 2012, dated 2023)
